Values after ≈ are worked out from the molar mass of the structure shown. Counter-ions that a name gives are not always drawn. Like-named read-outs stand apart in the source and are kept apart here.

Common to all, as to assay type: cell-based
Assay [1] has as its system S. pneumoniae ATCC 25922 (NB07001). The experiment in a line: MIC by broth microdilution, S. pneumoniae NB07001. Particulars: Streptococcus pneumoniae, read-out: Antibacterial activity (MIC) NB07001. In outline: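 CLSI broth microdilution in CAMHB, inoculum ~5×10^5 CFU/mL, two-fold compound dilutions at 1% final DMSO. Plates incubated 20 h at 35°C in ambient air; MIC (μg/mL) is the lowest concentration preventing visible growth, confirmed by OD600.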
In general terms: Dilution methods test growth across graded concentrations, often in twofold steps.

Assay [2] concerns S. aureus ATCC 49951 (NB01006). The experiment in a line: MIC by broth microdilution, S. aureus NB01006. Particulars: Staphylococcus aureus, ATCC49951, CAMHB, 35° C., 20 hours, read-out: Antibacterial activity (MIC) NB01006. In a few lines: (§1)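 CLSI broth microdilution in cation-adjusted Mueller-Hinton broth, inoculum about 5×10^5 CFU/mL from overnight MHA cultures. Two-fold compound dilutions in 1% final DMSO; plates incubated 20 h at 35° C in ambient air. MIC (μg/mL) was the lowest concentration preventing visible growth, checked by OD600 and visual inspection.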

For assay [3], the system named is S. aureus NB01006-AVR005, gyrA (S84L), grlA (580F) and grlB (E471K). The experiment in a line: microbe, parasite or virus in culture. The note with it: Staphylococcus aureus, 20 h, read-out: Antibacterial activity (MIC) NB01006-AVR005. In a few lines:
as §1

Assay [4] has as its system E. faecalis ATCC 29212 (NB04001). The experiment in a line: MIC by broth microdilution, E. faecalis NB04001. The note with it: Enterococcus faecalis, ATCC29212, CAMHB, 35° C., 20 hours, read-out: Antibacterial activity (MIC) NB04001. In a few lines:
as §1

Assay [5] relates to P. aeruginosa NB52019, wild-type PAO1 strain. The experiment in a line: MIC by broth microdilution, P. aeruginosa NB52019. The note with it: Pseudomonas aeruginosa, CAMHB, 35° C., 20 hours, read-out: Antibacterial activity (MIC) NB52019. In outline:
as §1

The test system of assay [6] is E. coli ATCC 25922 (NB27001). The experiment in a line: MIC by broth microdilution, E. coli NB27001. Particulars: Escherichia coli, ATCC25922, CAMHB, 35° C., 20 hours, read-out: Antibacterial activity (MIC) NB27001. In outline: as §1
Assay [7] concerns S. aureus NB01080 fluoroquinolone-resistant clinical isolate. The experiment in a line: MIC by broth microdilution, S. aureus NB01080. The note with it: Staphylococcus aureus, CAMHB, 35° C., 20 hours, read-out: Antibacterial activity (MIC) NB01080. In outline:
as §1

The mark [8] stands for this setting: ATCC25922, S. pneumoniae, CAMHB supplemented with 5% lysed horse blood, 35° C., 20 hours.

For the compound `NC1([C@@H]2CCN(c3c(F)cc4cc(C(=O)O)c(=O)n5c4c3OC[C@@H]5CO)C2)CC1.O=CO` [Example 2, (S)-10-((R)-3-(1-aminocyclopropyl)pyrrolidin-1-yl)-9-fluoro-3-(hydroxymethyl)-5-oxo-2,3-dihydro-5H-[1,4]oxazino[2,3,4-ij]quinoline-6-carboxylic acid formate salt], the MIC in assay [1] (setting [8]), in assay [2], in assay [3], in assay [4], in assay [5] and in assay [6] was over 32 µg/mL throughout. Moreover, the MIC in assay [7] is over 32 µg/mL.

For the compound `COC[C@H]1COc2c(N3CC[C@@H](C4(N)CC4)C3)c(F)cc3cc(C(=O)O)c(=O)n1c23.O=CO` [Example 3, (S)-10-((R)-3-(1-aminocyclopropyl)pyrrolidin-1-yl)-9-fluoro-3-(methoxymethyl)-5-oxo-2,3-dihydro-5H-[1,4]oxazino[2,3,4-ij]quinoline-6-carboxylic acid formate salt], the MIC in assay [1] (setting [8]), in assay [2], in assay [3], in assay [4], in assay [5] and in assay [6] was over 32 µg/mL each time. Further, the MIC in assay [7] was over 32 µg/mL.

For the compound `NC1([C@@H]2CCN(c3c(F)cc4cc(C(=O)O)c(=O)n5c4c3OC[C@@H]5CF)C2)CC1` [Example 4, (R)-10-((R)-3-(1-aminocyclopropyl)pyrrolidin-1-yl)-9-fluoro-3-(fluoromethyl)-5-oxo-2,3-dihydro-5H-[1,4]oxazino[2,3,4-ij]quinoline-6-carboxylic acid], the MIC in assay [1] (ATCC25922, 20 h) is under 1 µg/mL; in assay [2] it was under 1 µg/mL; in assay [3], 1 to 32 µg/mL (≈ 2.47 to 78.9 µM); in assay [4], 1 to 32 µg/mL (≈ 2.47 to 78.9 µM); in assay [5], over 32 µg/mL; in assay [6] it was 1 to 32 µg/mL (≈ 2.47 to 78.9 µM). For the same compound, in assay [7], the MIC fell in the range of 1 to 32 µg/mL (≈ 2.47 to 78.9 µM).

Consider `C[C@H]1COc2c(N3CC[C@@H](C4(N)CC4)C3)c(F)cc3cc(C#N)c(=O)n1c23.O=C(O)C(F)(F)F` [Example 5, (S)-10-((R)-3-(1-aminocyclopropyl)pyrrolidin-1-yl)-9-fluoro-3-methyl-5-oxo-2,3-dihydro-5H-[1,4]oxazino[2,3,4-ij]quinoline-6-carbonitrile trifluoroacetate salt], for which the MIC in assay [1] (setting [8]) is under 1 µg/mL; in assay [2], under 1 µg/mL; in assay [3], under 1 µg/mL; in assay [4] it was under 1 µg/mL; in assay [5] it was 1 to 32 µg/mL; in assay [6] it was 1 to 32 µg/mL. Besides, in assay [7], the MIC was under 1 µg/mL.

For the compound `C[C@H]1COc2c(N3CC4CC4(N)C3)c(F)cc3ccc(=O)n1c23` (stereo partly drawn) [Example 6.2, (3S)-10-(1-amino-3-azabicyclo[3.1.0]hexan-3-yl)-9-fluoro-3-methyl-2,3-dihydro-5H-[1,4]oxazino[2,3,4-ij]quinolin-5-one hydrochloride salt], the MIC was 1 to 32 µg/mL in assay [1] (ATCC25922, 20 h); 1 to 32 µg/mL in assay [2]; 1 to 32 µg/mL in assay [3]; 1 to 32 µg/mL in assay [4]; over 32 µg/mL in assay [5]; 1 to 32 µg/mL in assay [6]. For the same compound, in assay [7], the MIC was under 1 µg/mL.

With `C[C@H]1COc2c(N3CC[C@@H](C4(N)CC4)C3)c(F)cc3c(CN)cc(=O)n1c23` [Example 7.9, (S)-10-((R)-3-(1-aminocyclopropyl)pyrrolidin-1-yl)-7-(aminomethyl)-9-fluoro-3-methyl-2,3-dihydro-5H-[1,4]oxazino[2,3,4-ij]quinolin-5-one], the MIC is under 1 µg/mL in assay [1] (ATCC25922, 20 h); under 1 µg/mL in assay [2]; under 1 µg/mL in assay [3]; under 1 µg/mL in assay [4]; 1 to 32 µg/mL (≈ 2.68 to 85.9 µM) in assay [5]; under 1 µg/mL in assay [6]. In addition, the MIC in assay [7] lay within 1 to 32 µg/mL (≈ 2.68 to 85.9 µM).

In the case of `C[C@H]1COc2c(N3CC4CC4(N)C3)c(F)cc3c(CN)cc(=O)n1c23` (stereo partly drawn) [Example 7.10, (3S)-10-(1-amino-3-azabicyclo[3.1.0]hexan-3-yl)-7-(aminomethyl)-9-fluoro-3-methyl-2,3-dihydro-5H-[1,4]oxazino[2,3,4-ij]quinolin-5-one], the MIC in assay [1] (ATCC25922, 20 h) was under 1 µg/mL; in assay [2], under 1 µg/mL; in assay [3] it was under 1 µg/mL; in assay [4], 1 to 32 µg/mL (≈ 2.9 to 92.9 µM); in assay [5], 1 to 32 µg/mL (≈ 2.9 to 92.9 µM); in assay [6], under 1 µg/mL. Also, the MIC in assay [7] lay within 1 to 32 µg/mL (≈ 2.9 to 92.9 µM).

With `CC1Cc2c(N3CC[C@@H]([C@H](C)N)C3)c(F)cc3cc(C(=O)O)c(=O)n1c23` (stereo partly drawn) [Example 9.2], the MIC in assay [1] (ATCC25922, 20 h) was under 1 µg/mL; in assay [2], under 1 µg/mL; in assay [3], over 32 µg/mL; in assay [4] it was under 1 µg/mL; in assay [5], over 32 µg/mL; in assay [6], 1 to 32 µg/mL (≈ 2.78 to 89 µM). Further, in assay [7], the MIC lay within 1 to 32 µg/mL (≈ 2.78 to 89 µM).

`CC1Cc2c(N3CCNCC3)c(F)cc3cc(C(=O)O)c(=O)n1c23` (stereo not drawn) [Example 9.3, 8-fluoro-2-methyl-4-oxo-9-(piperazin-1-yl)-1,2-dihydro-4H-pyrrolo[3,2,1-ij]quinoline-5-carboxylic acid]: the MIC in assay [1] (setting [8]) is over 32 µg/mL; in assay [2] it was over 32 µg/mL; in assay [3], over 32 µg/mL; in assay [4], over 32 µg/mL; in assay [5] it was over 32 µg/mL; in assay [6], 1 to 32 µg/mL (≈ 3.02 to 96.6 µM). Besides, in assay [7], the MIC is over 32 µg/mL.

`C[C@H]1CNc2c(N3CC[C@@H](C4(N)CC4)C3)c(F)cc3cc(C(=O)O)c(=O)n1c23.Cl` [Example 10, (S)-10-((R)-3-(1-aminocyclopropyl)pyrrolidin-1-yl)-9-fluoro-3-methyl-5-oxo-2,3-dihydro-1H,5H-pyrido[1,2,3-de]quinoxaline-6-carboxylic acid hydrochloride salt]: the MIC in assay [1] (setting [8]) was 1 to 32 µg/mL; in assay [2], 1 to 32 µg/mL; in assay [3], over 32 µg/mL; in assay [4], 1 to 32 µg/mL; in assay [5], over 32 µg/mL; in assay [6], 1 to 32 µg/mL. In addition, the MIC in assay [7] was 1 to 32 µg/mL.

Take `C[C@H]1CSc2c(N3CC[C@@H](C4(N)CC4)C3)c(F)cc3cc(C(=O)O)c(=O)n1c23.Cl` [Example 11, (S)-10-((R)-3-(1-aminocyclopropyl)pyrrolidin-1-yl)-9-fluoro-3-methyl-5-oxo-2,3-dihydro-5H-[1,4]thiazino[2,3,4-ij]quinoline-6-carboxylic acid hydrochloride salt]: the MIC in assay [1] (setting [8]) was under 1 µg/mL; in assay [2] it was under 1 µg/mL; in assay [3], 1 to 32 µg/mL; in assay [4], under 1 µg/mL; in assay [5], over 32 µg/mL; in assay [6], 1 to 32 µg/mL. Moreover, in assay [7], the MIC is under 1 µg/mL.

In the case of `C[C@H]1COc2c(N3CC[C@@H](C4(N)CC4)C3)cc(F)c3cc(C(=O)O)c(=O)n1c23` [Example 12.1, (S)-10-((R)-3-(1-aminocyclopropyl)pyrrolidin-1-yl)-8-fluoro-3-methyl-5-oxo-2,3-dihydro-5H-[1,4]oxazino[2,3,4-ij]quinoline-6-carboxylic acid trifluoroacetate salt], the MIC was under 1 µg/mL in assay [1] (ATCC25922, 20 h); under 1 µg/mL in assay [2]; under 1 µg/mL in assay [3]; under 1 µg/mL in assay [4]; 1 to 32 µg/mL in assay [5]; under 1 µg/mL in assay [6]. Moreover, the MIC in assay [7] is under 1 µg/mL.

The values above are taken from patent US20180318311A1, “TRICYCLIC 2-QUINOLINONES AS ANTIBACTERIALS” (priority 2017, published 2018).
